According to patent publication US5464617A, “β-lactam compounds” (Hoffmann-La Roche Inc., priority 1994, dated 1995):
Structures can show the parent of a compound that is named as a salt.

Key:
[1] = system: Citrobacter freundii 1982; test: MIC in vitro of a 1:4 combination of ceftriaxone with a compound of formula I (Test D); format: cell-based; details: for MIC C. freundii 1982 (D): test D; for MIC C. freundii 1982: Table 2
Procedure: The minimum inhibitory concentration in vitro ([…]) of a 1:4 combination of ceftriaxone with a compound of formula I against Citrobacter freundii 1982 was measured and compiled in Table 2 hereinafter.

E. coli 1346 = test: Antibacterial activity of the products per se, serial dilution method in liquid medium (Test E); format: cell-based; details: product per se; for MIC E. coli 1346 (E): test E; for MIC E. coli 1346: Table 3, liquid medium
Text: The antibacterial activity of the products per se is illustrated on the basis of Table 3 hereinafter, the minimum inhibitory concentration […] in vitro against E. coli 1346 being determined using the serial dilution method in liquid medium: […]

[2] = Table 4, 1:4 combination of ceftriaxone with the compound
[3] = 1:4 combination of ceftriaxone with the compound

| SMILES | MIC C. freundii 1982 (D) [1, 2] | MIC E. coli 1346 (E) (E. coli 1346; Table 4) | other results |
| --- | --- | --- | --- |
| CC(=O)N1C[C@H]2SC(CSc3nnc(C)s3)=C(C(=O)O)N3C(=O)[C@@H]1[C@@H]23 [42(a), (1aS,3aR,6bS)-2-Acetyl-5-(5-methyl-1,3,4-thiadiazol-2-ylsulphanylmethyl)-1-oxo-4-thia-1,1a,2,3,3a,6b-hexahydro-2,6a-diazacyclobut[cd]indene-6-carboxylic acid sodium salt] | 1 µg/mL | 2 µg/mL | – |
| Cn1nnnc1SCC(=O)N1C[C@H]2CC(OS(C)(=O)=O)=C(C(=O)O)N3C(=O)[C@@H]1[C@@H]23 [11(b), (1aS,3aR,6bR)-5-Methylsulphonyloxy-2-(1-methyl-1H-tetrazol-5-ylsulphanylacetyl)-1-oxo-1a,2,3,3a,4,6b-hexahydro-1H-2,6a-diazacyclobut[cd]indene-6-carboxylic acid sodium salt] | – | – | MIC C. freundii 1982 [1, 3]: 0.5 µg/mL; MIC E. coli 1346 (E. coli 1346): 16 µg/mL |
| Cc1nnc(SCC2=C(C(=O)O)N3C(=O)[C@@H]4[C@H]3[C@H](C2)CN4C(=O)CSc2ccncc2)s1 [65(c), (1aS,3aR,6 bR)-5-(S-Methyl-1,3,4-thiadiazol-2-ylsulphanylmethyl)-1-oxo-2-(pyridin-4-ylsulphanylacetyl)-1a,2,3,3a,4,6b-hexahydro-1H-2,6a-diazacyclobut[cd]indene-6-carboxylic acid sodium salt] | 1 µg/mL | 2 µg/mL | – |
| CS(=O)(=O)OC1=C(C(=O)O)N2C(=O)[C@@H]3[C@H]2[C@H](C1)CN3C(=O)NCc1cccs1 [9(c), (1aS,3aR,6bR)-5-Methylsulphonyloxy-2-(thien-2-ylmethylcarbamoyl)-1-oxo-1a,2,3,3a,4,6b-hexahydro-1H-2,6a-diazacyclobut[cd]indene-6-carboxylic acid sodium salt] | – | – | MIC C. freundii 1982 [1, 3]: 1 µg/mL; MIC E. coli 1346 (E. coli 1346): 8 µg/mL |
| NC(=O)Cn1nnnc1SCC1=C(C(=O)O)N2C(=O)[C@@H]3[C@H]2[C@@H](CN3C=O)O1 [38(b), (1 aS ,3aR, 6 bS )-5-(1-Carbamoylmethyl-1H-tetrazol-5-yl-sulfanylmethyl)-2-formyl-1-oxo-1,1a,2,3,3a,6b-hexahydro-4-oxa-2,6a-diaza-cyclobut[cd]indene-6-carboxylic acid sodium salt] | 4 µg/mL | 8 µg/mL | – |
| NC(=O)CSC1=C(C(=O)O)N2C(=O)[C@H]3NC[C@@H](C1)[C@H]32 [Example 2(f), (1aS,3aR,6bR)-5-Carbamoylmethylsulphanyl-1-oxo-1a,2,3,3a,4,6b-hexahydro-1H-2,6a-diazacyclobut[cd]indene-6-carboxylic acid trifluoroacetate] | 2 µg/mL | 8 µg/mL | – |
| CC(=O)N1C[C@H]2OC(CSc3ccncc3)=C(C(=O)O)N3C(=O)[C@@H]1[C@@H]23 [32(a), (1aS,3aR,6bS)-2-Acetyl-5-(pyridin-4-ylsulphanylmethyl)-1-oxo-1,1a,2,3,3a,6b-hexahydro-4-oxa-2,6a-diazacyclobut[cd]indene-6-carboxylic acid sodium salt] | 16 µg/mL | > 32 µg/mL | – |
| Cn1nnnc1SCC1=C(C(=O)O)N2C(=O)[C@@H]3[C@H]2[C@@H](CN3C(=O)Nc2ccc(O)cc2)S1 [41(d), (1aS,3aR,6bS)-2-(4-Hydroxy-phenylcarbamoyl)-5-(1-methyl-1H-tetrazol-5-ylsulphanylmethyl)-1-oxo-4-thia-1,1a,2,3,3a,6b-hexahydro-2,6a-diazacyclobut[cd]indene-6-carboxylic acid sodium salt] | 0.5 µg/mL | > 32 µg/mL | – |
| CC(=O)OCC1=C(C(=O)O)N2C(=O)[C@@H]3[C@H]2[C@H](C1)CN3C(=O)C(F)(F)F [25(d), (1aS,3aR,6bR)-5-Acetoxymethyl-2-trifluoroacetyl-1-oxo-1a,2,3,3a,4,6b-hexahydro-1H-2,6a-diazacyclobut[cd]indene-6-carboxylic acid sodium salt] | 0.5 µg/mL | 4 µg/mL | – |
| CNC(=O)Cn1nnnc1SCC1=C(C(=O)O)N2C(=O)[C@H]3NC[C@@H](C1)[C@H]32 [Example 73, (1aS,3aR,6bR)-5-(1-Methylcarbamoylmethyl-1H-tetrazol-5-ylsulphahylmethyl)-1-oxo-1a,2,3,3a,4,6b-hexahydro-1H-2,6 a-diazacyclobut[cd]indene-6-carboxylicacid trifluoroacetate] | 1 µg/mL | 1 µg/mL | – |
| Cn1nnnc1SCC1=C(C(=O)O)N2C(=O)[C@H]3NC[C@@H](O1)[C@H]32 [Example 29(e), (1aS,3aR,6bS)-5-(1-Methyl-1H-tetrazol-5-ylsulphanylmethyl)-1-oxo-1,1a,2,3,3a,6b-hexahydro-4-oxa-2,6a-diazacyclobut[cd]indene-6-carboxylic acid sodium salt] | 0.5 µg/mL | 1 µg/mL | – |
| Cn1nc(O)c(=O)nc1SCC1=C(C(=O)O)N2C(=O)[C@H]3NC[C@@H](C1)[C@H]32 [Example 53, (1aS,3aR,6bR)-5-(2,5-Dihydro-6-hydroxy-2-methyl-5-oxo-1,2,4-triazin-3-ylsulphanylmethyl)-1-oxo-1a,2,3,3a,4,6 b-hexahydro-1H-2,6a-diazacyclobut[cd]indene-6-carboxylic acid trifluoroacetate] | 4 µg/mL | 2 µg/mL | – |
| O=C(O)C1=C(CSc2nc(-c3cccnc3)cs2)C[C@@H]2CN[C@@H]3C(=O)N1[C@H]23 [Example 66, (1aS,3aR,6bR)-1-Oxo-5-(4-pyridin-3-yl-thiazol-2-ylsulphanylmethyl)-1a,2,3,3a,4,6b-hexahydro-1H-2,6a-diazacyclobut[cd]indene6-carboxylic acid trifluoroacetate] | 8 µg/mL | 4 µg/mL | – |
| Cn1nnnc1SCC1=C(C(=O)O)N2C(=O)[C@@H]3[C@H]2[C@H](C1)CN3C(=O)Nc1ccc(O)cc1 [18(a), (1aS,3aR,6bR)-2-(4-Hydroxy-phenylcarbamoyl)-5-(1-methyl-1H-tetrazol-5-ylsulphanylmethyl)-1-oxo-1a,2,3,3a,4,6b-hexahydro-1H-2,6a-diazacyclobut[cd]indene-6-carboxylic acid sodium salt] | – | – | MIC C. freundii 1982 [1, 3]: 0.25 µg/mL; MIC E. coli 1346 (E. coli 1346): 32 µg/mL |
| Cn1nnnc1SC1=C(C(=O)O)N2C(=O)[C@@H]3[C@H]2[C@H](C1)CN3C(=O)NCc1cccs1 [3(d), (1aS,3aR,6bR)-5-(1-Methyl-1H-tetrazol-5-ylsulphanyl)-1-oxo-2-(thien-2-ylmethylcarbamoyl)-1a,2,3,3a,4,6b-hexahydro-1H-2,6a-diazacyclobut[cd]indene-6-carboxylic acid sodium salt] | – | – | MIC C. freundii 1982 [1, 3]: 1 µg/mL; MIC E. coli 1346 (E. coli 1346): 32 µg/mL |
| Nc1nnc(SCC2=C(C(=O)O)N3C(=O)[C@@H]4[C@H]3[C@H](C2)CN4C(=O)Nc2ccc(O)cc2)s1 [18(d), (1aS,3aR,6bR)-5-(5-Amino-1,3,4-thiadiazol-2-ylsulphanylmethyl)-2-(4-hydroxy-phenylcarbamoyl)-1-oxo-1a,2,3,3a,4,6b-hexahydro-1H-2,6a-diazacyclobut[cd]indene-6-carboxylic acid sodium salt] | – | – | MIC C. freundii 1982 (D) ([1]; Table 5, particularly preferred products, 1:4 combination with ceftriaxone): ≤ 0.06 µg/mL; MIC E. coli 1346 (E) (E. coli 1346; Table 5, particularly preferred products): 32 µg/mL |

Second part, led by results:

| MIC C. freundii 1982 (D) [1, 2] | MIC E. coli 1346 (E) (E. coli 1346; Table 4) | SMILES | other results |
| --- | --- | --- | --- |
| 4 µg/mL | 8 µg/mL | CC(=O)N1C[C@H]2CC(Sc3nnc(C)s3)=C(C(=O)O)N3C(=O)[C@@H]1[C@@H]23 [3(ac), (1aS,3aR,6bR)-2-Acetyl-5-(5-methyl-1,3,4-thiadiazol-2-ylsulphanyl)-1-oxo-1a,2,3,3a,4,6b-hexahydro-1H-2,6a-diazacyclobut[cd]indene-6-carboxylic acid sodium salt] | – |
| 1 µg/mL | 2 µg/mL | CNC(=O)OCC1=C(C(=O)O)N2C(=O)[C@@H]3[C@H]2[C@H](C1)CN3C(=O)C(F)(F)F [98(b), (1aS,3aR,6bR)-5-Methylcarbamoyloxymethyl-1-oxo-2-trifluoroacetyl-1a,2,3,3a,4,6b-hexahydro-1H-2,6a-diazacyclobut[cd]indene-6-carboxylic acid sodium salt] | – |
| 2 µg/mL | 8 µg/mL | CC(=O)N1C[C@H]2CC(COC(=O)NCC(N)=O)=C(C(=O)O)N3C(=O)[C@@H]1[C@@H]23 [96(a), (1aS,3aR,6bR)-2-Acetyl-5-carbamoylmethylcarbamoyloxymethyl-1-oxo-1a,2,3,3a,4,6b-hexahydro-1H-2,6a-diazacyclobut[cd]indene-6-carboxylic acid sodium salt] | – |
| 1 µg/mL | 1 µg/mL | CNC(=O)Cn1nnnc1SCC1=C(C(=O)O)N2C(=O)[C@@H]3[C@H]2[C@H](C1)CN3C(=O)C(F)(F)F [74(b), (1aS,3aR,6bR)-5-(1-Methylcarbamoylmethyl-1H-tetrazol-1-ylsulphanylmethyl)-1-oxo-2-trifluoroacetyl-1a,2,3,3a,4,6b-hexahydro-1H-2,6a-diazacyclobut[cd]indene-6-carboxylic acid sodium salt] | – |
| 2 µg/mL | 8 µg/mL | O=C(NC1CC1)OCC1=C(C(=O)O)N2C(=O)[C@H]3NC[C@@H](C1)[C@H]32 [Example 93, (1aS,3aR,6bR)-5-Cyclopropylcarbamoyloxymethyl-1-oxo-1a,2,3,3a,4,6b-hexahydro-1H-2,6a-diazacyclobut[cd]indene-6-carboxylicacid trifluoroacetate] | – |
| 0.5 µg/mL | 16 µg/mL | Cn1nnnc1SCC1=C(C(=O)O)N2C(=O)[C@@H]3[C@H]2[C@H](C1)CN3C(=O)NCc1ccc(O)cc1 [18(h), (1aS,3aR,6bR)-2-(4-Hydroxy-benzylcarbamoyl)-5-(1-methyl-1H-tetrazol-5-ylsulphanylmethyl)-1-oxo-1a,2,3,3a,4,6b-hexahydro-1H-2,6a-diazacyclobut[cd]indene-6-carboxylic acid sodium salt] | – |
